Where two headings read alike, the source gives them in different places.
Assays:
[1] = target: KDR kinase (790-1356 AA) (Homo sapiens (Human), UniProt P35968); experiment: Inhibitory activity at KDR kinase (Lance Ultra Ulight-TK assay); format: biochemical
Procedure, shortened: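 Kinase (20 nM final) and compound were premixed 20 min at 30 °C, then phosphorylation ran 2 h at 30 °C with ATP at 90 μM and Ulight-TK substrate at 50 μM, pH 7.5, Mg2+ and Mn2+ present.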

[2] = target: B-Raf kinase (Homo sapiens (Human), UniProt P15056); experiment: Inhibitory activity at B-Raf kinase (ADP-GLO assay); format: biochemical
Method: Inhibitory Activity of Compounds at B-Raf Kinase
• [Experimental method]: Use ADP-GLO™ assay kit from Promega to evaluate the inhibitory activity of compounds at B-Raf • [Instrument]: PerKinElmer's ENVISION plate reader • [Material]: Optiplate-384 well plate (PerKinElmer), kinase buffer (50 mM Hepes pH7.5, 1 mM EGTA, 2 mM DTT, 10 mM Mg^2+, 0.05% BSA), B-Raf kinase (Millipore, catalogue #14-530-K), GST-MEK1 substrate (Carna, catalogue #07-141-10), Super pure ATP (Promega), ADP-GLO™ assay kit (Promega, catalogue # V9102), DMSO (Sigma, catalogue #34869), purified water (Millipore, type: Milli-Q). • [Study conditions]: Mix B-Raf kinase (final concentration: 5 nM) and compound (DMSO final concentration: 0.25%) and preincubate at 30° C. for 20 min, then add ATP (final concentration: 6 μM) and reaction substrate (final concentration: 30 nM), React for 2 hrs at 30° C. After reaction, add ADP-GLO™ reagent, react for 40 min at room temperature, then add ADP-GLO™ detecting agent, react for 30 min at room temperature. After that, use ENVSION to measure the […]. • [Samples]: Compounds in the examples and Sorafenib (positive control) • [Data analysis]: Use CBIS data analysis software to calculate IC50 values

[3] = system: pERK in MDA-MB-231 cells; experiment: Inhibitory activity at pERK (In Cell Western, MDA-MB-231 cells); format: cell-based; conditions: Homo sapiens
Procedure, shortened: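 pERK was measured by in-cell immunofluorescence (PI nuclear counterstain, Acumen read-out) in fixed MDA-MB-231 cells. Compound exposure lasted 2 h in DMEM with 0.1% BSA, using eight 3-fold dilutions starting at 30 μM final and 0.3% DMSO. IC50 values were derived from the resulting curves.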

[4] = system: PLC-PRF-5 cells; experiment: Inhibition of proliferation of PLC-PRF-5 cells (ATPlite); format: cell-based; conditions: Homo sapiens
Procedure, shortened: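 Antiproliferative IC50 from luminescent ATP detection (ATPlite) after 96 h compound exposure at 37 °C. Cells grown in DMEM plus 10% FBS and allowed 2 h to settle, then dosed with eight 3-fold dilutions topping at 30 μM final, DMSO 0.3%.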

[5] = MDA-MB-231, MDA-MB-231 cells, read-out: MDA-MB-231 pERK IC50
[6] = PLC-PRF-5, PLC-PRF-5 cells, read-out: PLC-PRF-5 cell proliferation IC50
[7] = MDA-MB-231, read-out: MDA-MB-231 pERK IC50
[8] = PLC-PRF-5, read-out: PLC-PRF-5 cell proliferation IC50

KDR kinase (790-1356 AA), sequence (P35968 790-1356): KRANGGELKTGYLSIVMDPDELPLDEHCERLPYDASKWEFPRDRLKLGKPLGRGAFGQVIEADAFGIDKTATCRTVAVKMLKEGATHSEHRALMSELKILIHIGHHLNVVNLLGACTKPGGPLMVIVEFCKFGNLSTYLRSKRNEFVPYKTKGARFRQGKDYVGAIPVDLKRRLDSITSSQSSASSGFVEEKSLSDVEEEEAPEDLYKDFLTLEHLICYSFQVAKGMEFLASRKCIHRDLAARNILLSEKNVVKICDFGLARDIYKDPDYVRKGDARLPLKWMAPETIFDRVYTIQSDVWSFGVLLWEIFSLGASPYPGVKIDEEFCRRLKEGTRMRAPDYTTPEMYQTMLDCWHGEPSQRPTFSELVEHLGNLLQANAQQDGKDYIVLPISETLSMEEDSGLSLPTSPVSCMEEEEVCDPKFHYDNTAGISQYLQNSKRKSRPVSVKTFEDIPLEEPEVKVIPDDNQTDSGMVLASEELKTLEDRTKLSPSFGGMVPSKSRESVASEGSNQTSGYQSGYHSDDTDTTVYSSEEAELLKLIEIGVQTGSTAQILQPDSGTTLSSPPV
B-Raf kinase, sequence (P15056 416-766): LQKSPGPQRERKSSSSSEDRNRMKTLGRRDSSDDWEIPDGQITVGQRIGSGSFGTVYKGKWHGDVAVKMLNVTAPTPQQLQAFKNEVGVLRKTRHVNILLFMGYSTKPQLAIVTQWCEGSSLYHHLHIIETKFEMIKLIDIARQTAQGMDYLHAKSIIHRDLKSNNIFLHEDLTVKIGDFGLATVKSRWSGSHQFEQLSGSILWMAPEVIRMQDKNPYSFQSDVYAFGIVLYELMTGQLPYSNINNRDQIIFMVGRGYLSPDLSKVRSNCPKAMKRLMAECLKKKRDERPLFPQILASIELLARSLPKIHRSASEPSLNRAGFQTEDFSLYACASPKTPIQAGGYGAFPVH

| IC50 [1] [nM] | IC50 [2] [nM] | IC50 [3, 5] [nM] | Structure (SMILES) | IC50 [4, 6] [nM] | IC50 [3, 7] [nM] | IC50 [4, 8] [nM] |
| --- | --- | --- | --- | --- | --- | --- |
| 13.5 | 26 | 33.9 | CS(=O)(=O)c1cc(NC(=O)Nc2ccc(Oc3ccnc(NC(=O)C4CC4)c3)c(F)c2)cc(C(F)(F)F)c1 [Exe. 037] | 768 |  |  |
| 8.2 | 5.3 | 23.5 | CN1CCC(Oc2cc(NC(=O)Nc3ccc(Oc4ccnc(NC(=O)C5CC5)c4)c(F)c3)cc(C(F)(F)F)c2)C1 (centres unmarked) [Exe. 038] | 130 |  |  |
| 4.2 | 37.5 | 18.1 | CC1CN(c2cc(NC(=O)Nc3ccc(Oc4ccnc(NC(=O)C5CC5)c4)c(F)c3)cc(C(F)(F)F)c2)C(=O)O1 (centres unmarked) [Exe. 041] | 358 |  |  |
| 14.2 | 13 | 29.8 | CC(=O)Nc1cc(NC(=O)Nc2ccc(Oc3ccnc(NC(=O)C4CC4)c3)c(F)c2)cc(C(F)(F)F)c1 [Exe. 044] | 752 |  |  |
| 6.2 | 73.6 | 53.3 | CC1CN(c2cc(NC(=O)Nc3ccc(Oc4ccnc(NC(=O)C5CC5)c4)c(F)c3)cc(C(F)(F)F)c2)CC(C)O1 (centres unmarked) [Exe. 047] | 682 |  |  |
| 7.3 | 11 | 25 | CN(C)C1CCN(c2cc(NC(=O)Nc3ccc(Oc4ccnc(NC(=O)C5CC5)c4)c(F)c3)cc(C(F)(F)F)c2)C1 (centres unmarked) [Exe. 048] | 233 |  |  |
| 5.2 | 23.6 | 33.9 | O=C(Nc1cc(N2CCC(O)CC2)cc(C(F)(F)F)c1)Nc1ccc(Oc2ccnc(NC(=O)C3CC3)c2)c(F)c1 [Exe. 051] | 749 |  |  |
| 15.5 | 13 | 22 | O=C(Nc1cc(N2CCCC2=O)cc(C(F)(F)F)c1)Nc1ccc(Oc2ccnc(NC(=O)C3CC3)c2)c(F)c1 [Exe. 052] | 360 |  |  |
| 17.5 | 65 | 39.7 | CC(F)(F)c1cncc(NC(=O)Nc2ccc(Oc3ccnc(NC(=O)C4CC4)c3)c(F)c2)c1 [Exe. 056] | 110 |  |  |
| 13.7 | 116 | 30 | O=C(Nc1ccc(Oc2ccnc(NC(=O)C3CC3)c2)c(F)c1)Nc1cc(C2CC2)ccc1F [Exe. 058] | 43 |  |  |
| 8.2 | 90 | 19.4 | O=C(Nc1ccc(Oc2ccnc(NC(=O)C3CC3)c2)c(F)c1)Nc1ccc2[nH]cc(F)c2c1 [Exe. 059] | 643 |  |  |
| 3.73 | 6.3 | 26.3 | O=C(Nc1cccc(C(F)(F)F)c1)Nc1ccc(Oc2ccnc(NC(=O)C3CC3)c2)c(F)c1 [Exe. 061] | 211 |  |  |
| 5.5 | 14.9 | 29.1 | O=C(Nc1ccc(Oc2ccnc(NC(=O)C3CC3)c2)c(F)c1)Nc1ccc(Cl)c(OC(F)(F)F)c1 [Exe. 063] | 2330 |  |  |
| 6.5 | 25 | 46.5 | CC(F)(F)c1cncc(NC(=O)Nc2ccc(Oc3ccnc(NC(=O)C4CC4)c3)cc2)c1 [Exe. 065] | 162 |  |  |
| 11 | 145 | 63.5 | Cc1cc(Oc2cc(NC(=O)C3CC3)ncn2)ccc1NC(=O)Nc1ccc(F)c(C(F)(F)F)c1 [Exe. 070, N-[6-[4-[[4-fluoro-3-(trifluoromethyl)phenyl]carbamoylamino]-3-methyl-phenoxy]pyrimidin-4-yl]cyclopropanecarboxamide] | 9300 |  |  |
| 10.5 | 146 | 77.5 | Cc1cc(Oc2cc(NC(=O)C3CC3)ncn2)ccc1NC(=O)Nc1cccc(C(F)(F)F)c1 [Exe. 074] | 6070 |  |  |
| 10.7 | 45 | 19.3 | Cc1cc(Oc2cc(NC(=O)C3CC3)ncn2)ccc1NC(=O)Nc1ccc(Cl)c(C(C)(F)F)c1 [Exe. 085] | 11000 |  |  |
| 11.3 | 153 | 85.5 | CC(F)(F)c1cc(NC(=O)Nc2ccc(Oc3cc(NC(=O)C4CC4)ncn3)c(F)c2)ccc1Cl [Exe. 105] | 1900 |  |  |

| IC50 [1] [nM] | IC50 [2] [nM] | IC50 [3, 5] [nM] | Structure (SMILES) | IC50 [4, 6] [nM] | IC50 [3, 7] [nM] | IC50 [4, 8] [nM] |
| --- | --- | --- | --- | --- | --- | --- |
| 13.4 | 31 | 20.2 | O=C(Nc1ccc(Oc2cc(NC(=O)C3CC3)ncn2)cc1F)Nc1cc(C(F)(F)F)ccc1F [Exe. 107] | 324 |  |  |
| 8.6 | 41 | 20 | O=C(Nc1cccc(C(F)(F)F)c1)Nc1ccc(Oc2cc(NC(=O)C3CC3)ncn2)cc1F [Exe. 108] | 1610 |  |  |
| 10.9 | 32 | 9.8 | CC(F)(F)c1ccc(F)c(NC(=O)Nc2ccc(Oc3cc(NC(=O)C4CC4)ncn3)cc2F)c1 [Exe. 109] | 274 |  |  |
| 7.3 | 24 | 13.4 | CC(F)(F)c1cc(NC(=O)Nc2ccc(Oc3cc(NC(=O)C4CC4)ncn3)cc2F)ccc1Cl [Exe. 110] | 1580 |  |  |
| 7.9 | 111 | 30.4 | Cc1cc(NC(=O)Nc2cc(C(C)(F)F)ccc2F)ccc1Oc1cc(NC(=O)C2CC2)ncn1 [Exe. 116] | 125 |  |  |
| 7.4 | 293 | 55.3 | Cc1cc(NC(=O)Nc2ccc(F)c(C(C)(F)F)c2)ccc1Oc1cc(NC(=O)C2CC2)ncn1 [Exe. 118] | 706 |  |  |
| 13.8 | 10.4 | 19.4 | Cc1cc(NC(=O)Nc2cc(C(F)(F)F)ccc2F)cnc1Oc1ccnc(NC(=O)C2CC2)c1 [Exe. 124] | 160 |  |  |
| 8.7 | 8.6 | 4.7 | COc1ccc(NC(=O)Nc2cnc(Oc3ccnc(NC(=O)C4CC4)c3)c(C)c2)cc1C(F)(F)F [Exe. 125] | 1720 |  |  |
| 30.2 | 61.4 | 24.3 | Cc1cc(NC(=O)Nc2cc(OC(C)C)cc(C(F)(F)F)c2)cnc1Oc1ccnc(NC(=O)C2CC2)c1 [Exe. 126] | 2440 |  |  |
| 11.8 | 7.2 | 11.6 | Cc1cc(Oc2ccnc(NC(=O)C3CC3)c2)ncc1NC(=O)Nc1cc(C(F)(F)F)ccc1F [Exe. 127] | 642 |  |  |
| 9.8 | 6.2 | 38 | Cc1cc(Oc2ccnc(NC(=O)C3CC3)c2)ncc1NC(=O)Nc1cc(C(C)(F)F)ccc1F [Exe. 128] | 819 |  |  |
| 4.6 | 29.7 | 725 | CS(=O)(=O)c1cc(NC(=O)Nc2ccc(Oc3ccnc(NC(=O)C4CC4)c3)nc2)cc(C(F)(F)F)c1 [Exe. 130] | 4990 |  |  |
| 6.1 | 12.5 | > 1000 | CN1CCC(Nc2cc(NC(=O)Nc3ccc(Oc4ccnc(NC(=O)C5CC5)c4)nc3)cc(C(F)(F)F)c2)CC1 [Exe. 131] | 10500 |  |  |
| 10 | 39 | 341 | O=C(Nc1ccc(Oc2ccnc(NC(=O)C3CC3)c2)nc1)Nc1cc(N2CCS(=O)(=O)CC2)cc(C(F)(F)F)c1 [Exe. 132] | 5910 |  |  |
| 6.6 | 29 | 46 | CS(=O)(=O)c1cc(NC(=O)Nc2ccc(Oc3ccnc(NC(=O)C4CC4)c3)cn2)cc(C(F)(F)F)c1 [Exe. 136] | 470 |  |  |
| 10.2 | 11.3 | 7.8 | O=C(Nc1ccc(Oc2ccnc(NC(=O)C3CC3)c2)cc1)Nc1ccc(Cl)c(C(F)(F)F)c1 [Exe. 137] | 5960 |  |  |
| 10.5 | 26 | 9.1 | O=C(Nc1ccc(Oc2ccnc(NC(=O)C3CC3)c2)cc1)Nc1ccc(F)c(C(F)(F)F)c1 [Exe. 138] | 1510 |  |  |

| Structure (SMILES) | IC50 [1] [nM] | IC50 [2] [nM] | IC50 [3, 5] [nM] | IC50 [4, 6] [nM] | IC50 [3, 7] [nM] | IC50 [4, 8] [nM] |
| --- | --- | --- | --- | --- | --- | --- |
| N#Cc1ccc(NC(=O)Nc2ccc(Oc3ccnc(NC(=O)C4CC4)c3)c(F)c2)cc1C(F)(F)F [Exe. 062] | 7.18 | 7 |  |  | 29.4 | 3050 |
| N#Cc1ccc(NC(=O)Nc2ccc(Oc3ccnc(NC(=O)C4CC4)c3)cn2)cc1C(F)(F)F [Exe. 133] | 9.1 | 25 |  |  | 23.6 | 1020 |
| N#Cc1ccc(NC(=O)Nc2ccc(Oc3ccnc(NC(=O)C4CC4)c3)cc2)cc1C(F)(F)F [Exe. 139] | 10 | 13 |  |  | 10.9 | 654 |

Source: patent US9359338B2, “Cyclopropanecarboxamido-substitute aromatic compounds as anti-tumor agents” (Crown Bioscience Inc. (Taiwan), priority 2012, dated 2016)
